Laboratory results as given in PubChem BioAssay (NCI).
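48-hour exposure; five concentrations; linearly interpolated endpoints. At the GI50, growth is halved. Definition used: TGI = concentration required for complete inhibition of growth.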

Key:
Assay in all cases: NCI anticancer screen, dose series, 48 h
CCRF-CEM leukemia = tested on: CCRF-CEM leukemia
EKVX NSCLC = tested on: EKVX NSCLC
HT29 colon = tested on: HT29 colon
IGROV1 ovarian = tested on: IGROV1 ovarian
NCI-H460 lung = tested on: NCI-H460 lung
OVCAR-5 ovarian = tested on: OVCAR-5 ovarian
HOP-92 NSCLC = tested on: HOP-92 NSCLC
RPMI-8226 leukemia = tested on: RPMI-8226 leukemia
MCF7 breast = tested on: MCF7 breast
HS 578T breast = tested on: HS 578T breast

SMILES	TGI (CCRF-CEM leukemia) [µM]	TGI (EKVX NSCLC) [µM]	TGI (HT29 colon) [µM]	TGI (IGROV1 ovarian) [µM]	TGI (NCI-H460 lung) [µM]	TGI (OVCAR-5 ovarian) [µM]	GI50 (CCRF-CEM leukemia) [µM]	GI50 (EKVX NSCLC) [µM]	GI50 (HOP-92 NSCLC) [µM]	TGI (HOP-92 NSCLC) [µM]	GI50 (HT29 colon) [µM]	GI50 (IGROV1 ovarian) [µM]	GI50 (NCI-H460 lung) [µM]	GI50 (OVCAR-5 ovarian) [µM]	TGI (RPMI-8226 leukemia) [µM]	TGI (MCF7 breast) [µM]	GI50 (HS 578T breast) [µM]	TGI (HS 578T breast) [µM]	GI50 (MCF7 breast) [µM]	GI50 (RPMI-8226 leukemia) [µM]
COc1cc(OC)c2ssc3c(OC)cc(OC)c4ssc1c2-c43	> 100	> 100	> 100	> 100	> 100	> 100														
O=Cc1ccc(-c2ccc(-c3nc4ccccc4[nH]3)cc2)s1	38.9	87	> 100	> 100	29.7	> 100	14	24	0.152	28.1	38.9	34.8	13.1	37						
CC(C)N(C(=O)C1(C)CC1)C(C)C	> 100	> 100	> 100	> 100		> 100				> 100					> 100					
COc1ccc2c(c1O)C(=O)C(CCC(=O)O)CC2 (configuration not stated)	> 100	> 100	> 100	> 100	> 100					> 100					> 100					
COc1cc2c(c(OC)c1O)-c1ccc(OC)c(=O)cc1[C@@H](NC(=O)C(F)(F)F)CC2	> 100	> 100		0.695		> 100				> 100					0.0699	> 100				
CCSC(SCC)c1cc2c(cc1Br)OCO2	62.4	> 100	44.8	> 100	49.4	> 100				55.3					60.3					
COC(=O)C(Cc1cnc[nH]1)NC(=O)CNC(=O)CCCn1c(=O)c2c3ccccc3n(C)c2n2nnc(-c3ccccc3)c12 (configuration not stated)	> 100	> 100	> 100	> 100	> 100	> 100	> 100	> 100			> 100	72.5	> 100	> 100	> 100	> 100	> 100	> 100	> 100	> 100
C=CCCOC(=O)CO[N+](=O)[O-]	> 100	> 100	> 100	> 100	> 100	> 100									> 100					
CN(C)CCCNC(=O)c1ccc2oc3cc4ccccc4c(=O)n3c2c1		> 50	46.8	> 50	> 50			> 50	> 50	> 50	15.4	18.4	16.6		> 50	> 50			> 50	> 50
C=CCCCn1ccc2ccccc21	> 100	> 100	> 100	> 100	> 100	> 100				> 100					> 100					
CC(=O)[O-].CC(=O)[O-].O=C(N/N=C/c1cc(Cl)cc(Cl)c1O)c1ccncc1.[Ni+2]	> 100	> 100	> 100	> 100	> 100	> 100			17.1	76.9					> 100					
COc1ccc(/C=C/C(=O)C(C)(C)CN2CCCCC2)cc1	60.6	80.7	33	65.8	43.3	> 100									40.3					
Cc1c(-c2ccccc2)c(=O)oc2ccc(Cl)cc12	> 100	> 100	> 100	> 100	> 100	> 100				> 100					> 100					
CCCCCCCCCCCCCCCCOCC(CN(C)CCN(C)C)OCCCCCCCCCCCCCCCC (configuration not stated)	> 100	> 100	> 100	> 100	> 100	> 100				> 100					> 100					
COC(=O)NC1(NC(=O)OC)NC(=O)c2cc(OC)c(OC)cc2N1	55.3	> 100		> 100	> 100	> 100									> 100	> 100		85.1		
COc1cc(Br)c(CC2(C#N)c3ccccc3C3C(N2C(=O)c2ccccc2)C3(Cl)Cl)cc1OC (configuration not stated)	> 65.5	> 65.5	> 65.5	> 65.5	> 65.5	> 65.5				> 65.5					> 65.5					
CCOC(=O)Cc1nc2ccccc2s1	72.8	> 100	37.1	> 100	39.6	57														
O=C(O)C1=C(C(=O)Nc2ccccc2)C2C=CC1C2 (configuration not stated)	> 100	> 100	> 100	> 100	> 100	> 100				> 100					> 100					
CCOC(=O)C(Cc1c[nH]c2ccc([N+](=O)[O-])cc12)(NC(C)=O)C(=O)OCC		> 1000	> 1000	> 833	> 1000	> 1000		> 1000		> 423	> 1000	68.7	> 306	> 1000		> 1000	80.8	> 765	81	
C#Cc1c(C)c(/C=C/C(C)=C/C=C/C(C)=C/C(=O)OC)n(C)c1C	> 100	> 100	> 100	> 100	> 100	> 100				> 100					> 100					
O=C1OC(c2ccccc2)=N/C1=C\c1ccc2ccccc2c1	> 100	> 100	> 100	> 100	> 100	> 100				> 100					> 100					
COCc1c(CO)cnc(C)c1OC1OC(CO)C(O)C(O)C1O (configuration not stated)		> 100	> 100	> 100	> 100	> 100									> 100					

SMILES	TGI (CCRF-CEM leukemia) [µM]	TGI (EKVX NSCLC) [µM]	TGI (HT29 colon) [µM]	TGI (IGROV1 ovarian) [µM]	TGI (NCI-H460 lung) [µM]	TGI (OVCAR-5 ovarian) [µM]	GI50 (CCRF-CEM leukemia) [µM]	GI50 (EKVX NSCLC) [µM]	GI50 (HOP-92 NSCLC) [µM]	TGI (HOP-92 NSCLC) [µM]	GI50 (HT29 colon) [µM]	GI50 (IGROV1 ovarian) [µM]	GI50 (NCI-H460 lung) [µM]	GI50 (OVCAR-5 ovarian) [µM]	TGI (RPMI-8226 leukemia) [µM]	TGI (MCF7 breast) [µM]	GI50 (HS 578T breast) [µM]	TGI (HS 578T breast) [µM]	GI50 (MCF7 breast) [µM]	GI50 (RPMI-8226 leukemia) [µM]
N.N.N.N.O=NN1CCCCCC1(P(=O)([O-])[O-])P(=O)([O-])[O-].[Pt+4].[Pt+4]	> 100	> 100	> 100	> 100	> 100	> 100	> 100	> 100	> 100	> 100	> 100	> 100	> 100	> 100	> 100					> 100
CC(/C=C/C(=O)c1sc(-n2nc(-c3ccccc3)cc2-c2ccccc2)nc1C)=C\c1ccccc1	> 100	> 100		> 100	> 100			9.73							> 100					
Cc1nnc(N=Nc2c(O)[nH]c3c(Cl)cc(Cl)cc23)n1N	> 100	> 100	> 100	> 100	> 100	> 100				> 100					> 100					
NC(=O)C1c2ccccc2C=Cc2ccccc21		> 100	> 100	> 100	> 100	> 100		> 100	51.6	> 100	> 100	> 100	> 100	> 100	> 100	> 100	> 100	> 100	> 100	> 100
CCN(CC)c1ccc(C2CC(c3cc(OC)c(OC)c(OC)c3)=NN2)cc1 (configuration not stated)	1.16		> 43	> 25.1	11.8	> 100	0.277	0.305	1.55	31.1	0.365	0.327	0.331	5.12	7.91				0.227	0.632
Nc1ccccc1SC(CC(=O)c1ccccc1)c1ccc([N+](=O)[O-])cc1 (configuration not stated)	46.7		14.6	21.6	36	30.6	13.7				4.3	5.69	17.3	16.6	9.06	16.1	18.1	47.6	3.31	2.91
O=C1Nc2cc(Cl)ccc2N=CC1NC(=O)C(c1ccccc1)c1ccccc1Cl (configuration not stated)	> 100	> 100	> 100	> 100	> 100	> 100				> 100					> 100					
COc1cc2c3c(c4ccc(OC)c(OC)c4c2cc1OC)CN1CCC[C@@H]1C3	0.651	0.378	0.593	0.935	2.09	17.1				0.616						> 20.3		0.593		
Cc1ccc(-n2c3nc(=O)n(C)c(=O)c-3nc3ccccc32)cc1	49.4	38.4	19.1	92.1	17.3	45.3									54.6					
CCN(CC)CC.CCOc1ccc(NC(=O)N=C=[N-])cc1.[CH-]1CCCCC1.[CH-]1CCCCC1.[CH-]1CCCCC1.[Cl-].[Sn+4]	0.515	0.143	0.0467	0.115	0.575	0.114	< 0.0162	0.043	0.0264	0.111	0.022	0.0342	0.0279	0.0427	0.064		0.0565	0.47		0.0199
C[N+](C)(C)CC(=O)N/N=C(\CCC(=O)NCCc1ccccc1)CC(=O)c1ccccc1	> 100	> 100	> 100	> 100	> 100	> 100				> 100					> 100					
COc1cccc(Cn2c(-c3nonc3N)nc3ccccc32)c1	> 100			> 75.6	> 34.6	> 68	0.348		0.344	16.4	0.345	0.624	0.378	1.17	> 100	> 100			0.383	0.377
CN(C)c1ncnc2c1Cc1ccccc1C(=O)N2C	> 100	> 100	> 100	> 100	> 100	> 100				> 100					> 100					
C#CCSc1n[nH]c(-c2ccco2)n1		> 100	> 100	> 100	> 100	> 100				> 100					> 100	> 100		> 100		
CC1CN(c2ccc(Cl)cc2)CC(C)(C)OC(=O)O1 (configuration not stated)	> 100	> 100	> 100	> 100	> 100	> 100				> 100					> 100					
COc1c2c3ccccc3nc-2n(C)c2ccccc12		57.2	> 100	> 100	32.1	> 100		13.7			4.75	24.3	6.26	8.43	24.4	33.1	42	> 100	4.31	6.04
O=C(NCCc1ccccc1)C(c1ccccc1)(c1ccccc1)c1ccccc1	> 100	27.1		70	> 100	50.6	40	4.13	> 100	> 100		28.8	31.5	3.91	> 100	> 100	3.88	23.7	26	15.9
Nc1nc(Cl)cc(NCCCCCNc2cc(Cl)nc(N)n2)n1	> 100	> 100	> 100	> 100	> 100	> 100				> 100					> 100					
CO/[N+]([O-])=C\C(=O)N/C=C/C(=O)O	> 100	> 100		> 100	> 100	> 100				> 100					> 100	> 100		> 100		
O=C(NCCO)c1cc2c(cn1)[nH]c1ccccc12	> 100	> 100	> 100	> 100	> 100	> 100				> 100					> 100					
CSc1nc(NC2OCC(OC(C)=O)C(OC(C)=O)C2OC(C)=O)c(N=C(C)C(C)=O)c(=O)n1C (configuration not stated)	> 100	> 100	> 100	> 100	> 100	> 100				> 100					> 100					
